Results reported in ChEMBL document CHEMBL5528039, “Discovery of a Macrocyclic Influenza Cap-Dependent Endonuclease Inhibitor” (J Med Chem, 2024).
Calls of active or inactive are those of the source. The calls are words filed in the database; no cut-off is given here.

What was measured:
[1] = Prodrug conversion in BALB/c mouse assessed as Baloxavir Cmax at 5 mg/kg, po measured after 24 hrs by LC-MS/MS analysis; type: ADME, organism-based; settings: in vivo
[2] = Prodrug conversion in BALB/c mouse assessed as Baloxavir half-life at 5 mg/kg, po measured after 24 hrs by LC-MS/MS analysis; type: ADME, organism-based; settings: in vivo
[3] = Prodrug conversion in BALB/c mouse assessed as Baloxavir AUC (0 to last) at 5 mg/kg, po measured after 24 hrs by LC-MS/MS analysis; type: ADME, organism-based; settings: in vivo
Influenza A virus [4] = assay: Antiviral activity against Influenza A virus A/PR/8/34 infected in BALB/c mouse assessed as reduction in viral load in lungs at 5 mg/kg, po pre-infected with virus for 48 hrs followed by twice daily compound administration starting from day 2 and measured 1 hrs after last dose on day 5 by crystal violet staining based analysis; type: functional, organism-based; settings: time 73.0 hrs
Influenza A virus [5] = assay: Antiviral activity against Influenza A virus A/PR/8/34 (H1N1) infected in MDCK cells assessed as reduction in virus-induced cytopathic effect incubated for 5 days by CCK8 based microplate spectrophotometric analysis; type: functional, organism-based; settings: 120 h; for EC90: time 5 day
[6] = Inhibition of influenza A virus A/WSN/33 (H1N1) RNA polymerase transfected in HEK293T/17 cells incubated for 24 hrs by dual luciferase reporter gene assay; type: cell-based; settings: HEK293T/17, 24 h
Influenza A virus [7] = assay: Antiviral activity against Influenza A virus A/California/07/2009 (H1N1) infected in MDCK cells assessed as reduction in virus-induced cytopathic effect incubated for 5 days by CCK8 based microplate spectrophotometric analysis; type: functional, organism-based; settings: 120 h
Influenza A virus [8] = assay: Antiviral activity against Influenza A virus A/California/2/2014 (H3N2) infected in MDCK cells assessed as reduction in virus-induced cytopathic effect incubated for 5 days by CCK8 based microplate spectrophotometric analysis; type: functional, organism-based; settings: 120 h
Influenza B virus [9] = assay: Antiviral activity against Influenza B virus B/Lee/40 infected in MDCK cells assessed as reduction in virus-induced cytopathic effect incubated for 5 days by CCK8 based microplate spectrophotometric analysis; type: functional, organism-based; settings: B/Lee/40, MDCK, 120 h
Influenza B virus [10] = assay: Antiviral activity against Influenza B virus B/Florida/78/2015 infected in MDCK cells assessed as reduction in virus-induced cytopathic effect incubated for 5 days by CCK8 based microplate spectrophotometric analysis; type: functional, organism-based; settings: B/Florida/78/2015, MDCK, 120 h
[11] = Protein binding in mouse plasma assessed as unbound fraction at 400 uM incubated for 4 hrs by LC-MS/MS analysis; type: ADME, cell-free
[12] = Protein binding in human plasma assessed as unbound fraction at 400 uM incubated for 4 hrs by LC-MS/MS analysis; type: ADME, cell-free
[13] = Metabolic stability in human liver microsomes assessed as intrinsic clearance at 1 uM measured upto 60 mins in presence of NADPH by LC-MS/MS analysis; type: ADME, Microsome; settings: 1 h
[14] = Clearance in BALB/c mouse at 2 mg/kg, iv measured after 24 hrs by LC-MS/MS analysis; type: ADME, organism-based; settings: in vivo
[15] = Volume of distribution at steady state in BALB/c mouse at 2 mg/kg, iv measured after 24 hrs by LC-MS/MS analysis; type: ADME, organism-based; settings: in vivo, read-out: Vdss
[16] = Half-life in BALB/c mouse at 2 mg/kg, iv measured after 24 hrs by LC-MS/MS analysis; type: ADME, organism-based; settings: in vivo
[17] = AUC (0 to last) in BALB/c mouse at 2 mg/kg, iv measured after 24 hrs by LC-MS/MS analysis; type: ADME, organism-based; settings: in vivo

## COC(=O)OCOc1c2n(ccc1=O)N([C@@H]1c3ccccc3SCc3c1ccc(F)c3F)[C@@H]1COCCN1C2=O [BALOXAVIR MARBOXIL]
[1]
  Cmax: 145 nM
[2]
  t1/2: 4.1 h
[3]
  AUClast: 0.88 µM·h
Influenza A virus [4]
  Activity: Active

## O=C1c2c(O)c(=O)ccn2N([C@@H]2c3ccccc3SCc3c2ccc(F)c3F)[C@@H]2COCCN12 [BALOXAVIR]
Influenza A virus [5]
  EC50: 0.0021 µM
  EC90: 0.0046 µM
[6]
  EC50: 0.00546 µM
Influenza A virus [7]
  EC50: 0.0014 µM
Influenza A virus [7]; time 5 day
  EC90: 0.003 µM
Influenza A virus [8]
  EC50: 0.0012 µM
Influenza A virus [8]; time 5 day
  EC90: 0.0018 µM
Influenza B virus [9]
  EC50: 0.021 µM
Influenza B virus [9]; time 5 day
  EC90: 0.043 µM
Influenza B virus [10]
  EC50: 0.0048 µM
Influenza B virus [10]; time 5 day
  EC90: 0.0074 µM
[11]
  fraction unbound at 4 h, 400 µM: 0.153
[12]
  fraction unbound at 4 h, 400 µM: 0.083
[13]
  CLint: < 8.6 µL/min/mg
[14]
  clearance: 61.6 mL/min/kg
[15]
  Vd: 14 L/kg
[16]
  half-life: 3.9 h
[17]
  AUC(0-t) at 24 h: 1.35 µM·h

## CN1C(=O)c2c(O)c(=O)ccn2N2[C@H](c3ccccc3C#N)c3cc(F)c(F)cc3OCC[C@@H]12 (racemic)
Influenza A virus [5]
  EC50: > 0.5 µM
  EC90: > 0.5 µM

## CN1C(=O)c2c(O)c(=O)ccn2N2C(c3ccccc3)c3ccccc3OCCC12 (racemic)
Influenza A virus [5]
  EC50: > 1 µM
  EC90: > 1 µM

## CN1C(=O)c2c(O)c(=O)ccn2N2[C@H](c3ccccc3F)c3cc(F)c(F)cc3OCC[C@@H]12
Influenza A virus [5]
  EC50: 0.011 µM
  EC90: 0.016 µM

## O=C1c2c(O)c(=O)ccn2N2[C@H](c3ccccc3)c3ccccc3OCC[C@H]2N1C1CCC1 (racemic)
Influenza A virus [5]
  EC50: 0.065 µM
  EC90: 0.12 µM

## CN1C(=O)c2c(O)c(=O)ccn2N2[C@H](c3ccccc3)c3ccccc3OCC[C@@H]12
Influenza A virus [5]
  EC50: 0.014 µM
  EC90: 0.026 µM
